US6727237B2, “Inhibitors of bacterial NAD synthetase” (priority 1998, dated 2004)

Each compound was assayed against T1, bacterial NAD synthetase enzyme (Bacillus subtilis, UniProt P08164) (assay: biochemical). Settings: not given.
T1 sequence (P08164 2-272 limits assumed): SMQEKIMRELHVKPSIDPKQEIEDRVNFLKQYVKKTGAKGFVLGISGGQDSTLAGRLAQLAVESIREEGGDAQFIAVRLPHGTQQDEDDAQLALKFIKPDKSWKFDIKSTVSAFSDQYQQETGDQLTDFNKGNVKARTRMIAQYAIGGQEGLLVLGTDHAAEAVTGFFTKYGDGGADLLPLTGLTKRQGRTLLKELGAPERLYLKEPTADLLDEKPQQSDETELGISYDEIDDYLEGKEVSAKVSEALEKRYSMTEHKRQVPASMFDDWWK
Type: biochemical

First: CC(=O)c1ccc2[nH]c(CCCCCCCCOC(=O)c3ccc([N+](C)(C)C)cc3)cc2c1 [Compound 894]
Second: C[n+]1cccc(CC(=O)OCCCCCCCCc2cc3cc(C(=O)c4ccccc4)ccc3[nH]2)c1 [Compound 942]
The IC50 of the first is 1.5-fold lower: 50 µM for the first, 75 µM for the second.

`C[n+]1cccc(C(=O)OCCCCCCCCCn2ccc3ccccc32)c1` [Compound 970] and `C[n+]1cccc(C(=O)OCCCCCCCCOc2cccc([N+](=O)[O-])c2)c1` [Compound 1065] are within 1.5-fold of each other in IC50: 55 µM for the first, 37.5 µM for the second.

Compared with `C[n+]1cccc(C(=O)OCCCOc2ccc(Oc3ccccc3)cc2)c1` [Compound 1070], `COC(=O)c1cc2cc(OCc3ccccc3)ccc2n1CCCCCCCOC(=O)c1ccc(C[N+](C)(C)C)cc1` [Compound 1097] is 1.8-fold higher in IC50: 36.2 µM for the first, 63.7 µM for the second. The first is the more potent here.

Work on `CC(=O)c1ccccc1OCCCCCCCCOC(=O)Cc1ccc([N+](C)(C)C)cc1` [Compound 1076] yielded an IC50 of 135 µM.

Going from `CC(=O)c1ccc2[nH]c(CCCCCCCCOC(=O)c3ccc([N+](C)(C)C)cc3)cc2c1` [Compound 894] to `C[n+]1cccc(CC(=O)OCCCCCCCCc2cc3cc(C(=O)c4ccccc4)ccc3[nH]2)c1` [Compound 942], the inhibition at 100 µM rises from 91.1% to 97.8%.

First: C[n+]1cccc(C(=O)OCCCCCCCCCn2ccc3ccccc32)c1 [Compound 970]
Second: C[n+]1cccc(C(=O)OCCCCCCCCOc2cccc([N+](=O)[O-])c2)c1 [Compound 1065]
The inhibition at 200 µM of the first is higher: 96.7% for the first, 81% for the second.

First: C[n+]1cccc(C(=O)OCCCOc2ccc(Oc3ccccc3)cc2)c1 [Compound 1070]
Second: COC(=O)c1cc2cc(OCc3ccccc3)ccc2n1CCCCCCCOC(=O)c1ccc(C[N+](C)(C)C)cc1 [Compound 1097]
The inhibition at 200 µM of the first is lower: 82% for the first, 98% for the second.

Work on `CC(=O)c1ccccc1OCCCCCCCCOC(=O)Cc1ccc([N+](C)(C)C)cc1` [Compound 1076] yielded an inhibition at 200 µM of 74%.

Same assay, conditions: compound at 0.05 mM

For `O=C(OCCCCCCCn1ccc2ccccc21)c1cccnc1` [Compound 944], the “% Inhibition” value was 2.06%.

Same assay, conditions: compound at 0.2 mM (Table 312A)

Compared with `C[n+]1cccc(C(=O)OCCCCCCn2ccc3ccccc32)c1` [Compound 967], `O=[N+]([O-])c1ccc2c(ccn2CCCCCCCC[n+]2ccccc2)c1` [Compound 6] is lower in “% Inhibition” value: 19.51% for the first, 5.67% for the second.

First: O=[N+]([O-])c1ccc2[nH]c(CCCC[n+]3ccccc3)cc2c1 [Compound 712]
Second: Fc1ccc2[nH]c(CCCC[n+]3ccccc3)cc2c1 [Compound 343]
The “% Inhibition” value of the first is higher: 12.59% for the first, 10.82% for the second.

Going from `c1ccc(C(c2ccccc2)(c2ccccc2)c2ccc3[nH]c(CCCCCC[n+]4cccc5ccccc54)cc3c2)cc1` [Compound 447] to `c1ccc(Oc2ccc3[nH]c(CCCCCCCC[n+]4ccc5ccccc5c4)cc3c2)cc1` [Compound 569], the “% Inhibition” value rises from 2.30% to 34.84%.

Compared with `FC(F)(F)c1ccc2[nH]c(CCCCCCCC[n+]3ccccc3)cc2c1` [Compound 365], `COc1ccc2[nH]c(CCCCCCCC[n+]3ccccc3)cc2c1` [Compound 377] is higher in “% Inhibition” value: 16.45% for the first, 30.12% for the second.

First: O=[N+]([O-])c1ccc2[nH]c(CCCCCCCC[n+]3ccc4ccccc4c3)cc2c1 [Compound 551]
Second: Fc1ccc2[nH]c(CCCCCC[n+]3ccc4ccccc4c3)cc2c1 [Compound 561]
The “% Inhibition” value of the first is higher: 50.05% for the first, 24.70% for the second.

Going from `O=C(O)c1ccc2[nH]c(CCCC[n+]3cccc4ccccc43)cc2c1` [Compound 493] to `O=[N+]([O-])c1cc([N+](=O)[O-])c2[nH]c(CCC[n+]3cccc4ccccc43)cc2c1` [Compound 414], the “% Inhibition” value falls from 9.12% to 6.91%.

Same assay, conditions: compound at 0.2 mM (Table 312B)

Going from `C[n+]1cccc(C(=O)OCCCCCCCCOc2ccccc2[N+](=O)[O-])c1` [compound 1055] to `CN(C)c1ccc(CC(=O)OCCCCCCCCOc2ccccc2[N+](=O)[O-])cc1` [Compound 1024], the “% Inhibition” value falls from 46% to 45%.

First: COc1ccccc1OCCCCCCCCOC(=O)c1cccnc1 [Compound 1012]
Second: CN(C)c1ccc(CC(=O)OCCCCCCCCOc2ccccc2N2CCOCC2)cc1 [Compound 1047]
The “% Inhibition” value of the first is lower: 2% for the first, 45% for the second.

`CN(C)c1ccc(CC(=O)OCCCCCCCCOc2cccc([N+](=O)[O-])c2)cc1` [Compound 1036] was tested, and the “% Inhibition” value was 6%.

Same assay, conditions: compound at 0.25 mM

Compared with `C[n+]1cccc(C(=O)OCCCCCCCCc2cc3ccc(C(F)(F)F)cc3[nH]2)c1` [Compound 915], `C[n+]1ccc(C(=O)OCCCCCCCCc2cc3ccc(C(F)(F)F)cc3[nH]2)cc1` [Compound 900] is lower in “% Inhibition” value: 95.7% for the first, 84.9% for the second.
